{"source": "patent US8791108B2", "about": "“Inhibitors of human immunodeficiency virus replication” (priority 2011, dated 2014)", "data": [{"test_system": "recombinant NL-Rluc virus", "test": "Inhibition of HIV replication (NL-RLuc luciferase reporter virus, MT-2 cells)", "type": "cell-based", "conditions": "Human immunodeficiency virus 1, MT2, 120 h, read-out: Activity", "units": {"EC50": "µM"}, "values": [{"compound": "CCN1CCN(C(=O)c2cc3nc(C)c([C@H](OC(C)(C)C)C(=O)O)c(-c4cc(F)c5c(c4C)CCCO5)n3n2)CC1", "note": "[Example 83, (2S)-2-(tert-butoxy)-2-(2-(4-ethylpiperazine-1-carbonyl)-7-(8-fluoro-5-methylchroman-6-yl)-5-methylpyrazolo[1,5-a]pyrimidin-6-yl)acetic acid]", "EC50": "> 1"}, {"compound": "Cc1cc(CNC(=O)c2cc3nc(C)c([C@H](OC(C)(C)C)C(=O)O)c(-c4cc5c(cc4F)OCCN5)n3n2)ccc1F", "note": "[Example 145, (2S)-2-(tert-Butoxy)-2-(7-(7-fluoro-3,4-dihydro-2H-benzo[b][1,4]oxazin-6-yl)-2-((4-fluoro-3-methylbenzyl)carbamoyl)-5-methylpyrazolo[1,5-a]pyrimidin-6-yl)acetic acid]", "EC50": "< 0.1"}, {"compound": "Cc1nc2cc(C(=O)NCc3cccc(OC(F)(F)F)c3)nn2c(-c2cc(F)c3c(c2C)CCCO3)c1[C@H](OC(C)(C)C)C(=O)O", "note": "[Example 67]", "EC50": "< 0.1"}, {"compound": "Cc1nc2cc(C(=O)N3CCN(c4cccc(Cl)c4)CC3)nn2c(-c2cc(F)c3c(c2C)CCCO3)c1[C@H](OC(C)(C)C)C(=O)O", "note": "[Example 80, (2S)-2-(tert-butoxy)-2-(2-(4-(3-chlorophenyl)piperazine-1-carbonyl)-7-(8-fluoro-5-methylchroman-6-yl)-5-methylpyrazolo[1,5-a]pyrimidin-6-yl)acetic acid]", "EC50": "< 0.1"}, {"compound": "Cc1nc2cc(C(=O)NCCC(C)(C)C)nn2c(-c2cc(F)c3c(c2C)CCCO3)c1[C@H](OC(C)(C)C)C(=O)O", "note": "[Example 62, (2S)-2-(tert-butoxy)-2-(2-((3,3-dimethylbutyl)carbamoyl)-7-(8-fluoro-5-methylchroman-6-yl)-5-methylpyrazolo[1,5-a]pyrimidin-6-yl)acetic acid]", "EC50": "< 0.1"}, {"compound": "Cc1nc2cc(C(=O)NCCCc3ccccc3)nn2c(-c2cc(F)c3c(c2C)CCCO3)c1[C@H](OC(C)(C)C)C(=O)O", "note": "[Example 50]", "EC50": "< 0.1"}, {"compound": "COc1ccc(CNC(=O)c2cc3nc(C)c([C@H](OC(C)(C)C)C(=O)O)c(-c4cc(F)c5c(c4C)CCCO5)n3n2)cc1OC", "note": "[Example 41, (2S)-2-(tert-butoxy)-2-(2-((3,4-dimethoxybenzyl)carbamoyl)-7-(8-fluoro-5-methylchroman-6-yl)-5-methylpyrazolo[1,5-a]pyrimidin-6-yl)acetic acid]", "EC50": "0.1 to 1"}, {"compound": "Cc1nc2cc(C(=O)N(Cc3ccccc3)C(C)C)nn2c(-c2cc(F)c3c(c2C)CCCO3)c1[C@H](OC(C)(C)C)C(=O)O", "note": "[Example 113, (2S)-2-(2-(benzyl(isopropyl)carbamoyl)-7-(8-fluoro-5-methylchroman-6-yl)-5-methylpyrazolo[1,5-a]pyrimidin-6-yl)-2-(tert-butoxy)acetic acid]", "EC50": "< 0.1"}, {"compound": "COc1ccc(CCNC(=O)c2cc3nc(C)c([C@H](OC(C)(C)C)C(=O)O)c(-c4cc(F)c5c(c4C)CCCO5)n3n2)cc1", "note": "[Example 65, (2S)-2-(tert-butoxy)-2-(7-(8-fluoro-5-methylchroman-6-yl)-2-((4-methoxyphenethyl)carbamoyl)-5-methylpyrazolo[1,5-a]pyrimidin-6-yl)acetic acid]", "EC50": "< 0.1"}, {"compound": "Cc1nc2cc(C(=O)NCCCC3CCCCC3)nn2c(-c2cc(F)c3c(c2C)CCCO3)c1[C@H](OC(C)(C)C)C(=O)O", "note": "[Example 131]", "EC50": "< 0.1"}, {"compound": "Cc1nc2cc(C(=O)NCc3cccc(-n4cccc4)c3)nn2c(-c2cc(F)c3c(c2C)CCCO3)c1[C@H](OC(C)(C)C)C(=O)O", "note": "[Example 99, (2S)-2-(2-((3-(1H-pyrrol-1-yl)benzyl)carbamoyl)-7-(8-fluoro-5-methylchroman-6-yl)-5-methylpyrazolo[1,5-a]pyrimidin-6-yl)-2-(tert-butoxy)acetic acid]", "EC50": "< 0.1"}, {"compound": "Cc1nc2cc(C(=O)NCCSC(C)(C)C)nn2c(-c2cc(F)c3c(c2C)CCCO3)c1[C@H](OC(C)(C)C)C(=O)O", "note": "[Example 136, (2S)-2-(tert-butoxy)-2-(2-((2-(tert-butylthio)ethyl)carbamoyl)-7-(8-fluoro-5-methylchroman-6-yl)-5-methylpyrazolo[1,5-a]pyrimidin-6-yl)acetic acid]", "EC50": "< 0.1"}, {"compound": "CCCCCc1ccccc1CNC(=O)c1cc2nc(C)c([C@H](OC(C)(C)C)C(=O)O)c(-c3ccc4c(c3Cl)NCCO4)n2n1", "note": "[Example 142, (2S)-2-(tert-Butoxy)-2-(7-(5-chloro-3,4-dihydro-2H-benzo[b][1,4]oxazin-6-yl)-5-methyl-2-((2-pentylbenzyl)carbamoyl)pyrazolo[1,5-a]pyrimidin-6-yl)acetic acid]", "EC50": "< 0.1"}, {"compound": "Cc1nc2cc(C(=O)NCCOC(C)C)nn2c(-c2cc(F)c3c(c2C)CCCO3)c1[C@H](OC(C)(C)C)C(=O)O", "note": "[Example 102, (2S)-2-(tert-butoxy)-2-(7-(8-fluoro-5-methylchroman-6-yl)-2-((2-isopropoxyethyl)carbamoyl)-5-methylpyrazolo[1,5-a]pyrimidin-6-yl)acetic acid]", "EC50": "< 0.1"}, {"compound": "Cc1nc2cc(C(=O)N3CCN(c4ccc(F)cc4)CC3)nn2c(-c2cc(F)c3c(c2C)CCCO3)c1[C@H](OC(C)(C)C)C(=O)O", "note": "[Example 87, (2S)-2-(tert-butoxy)-2-(7-(8-fluoro-5-methylchroman-6-yl)-2-(4-(4-fluorophenyl)piperazine-1-carbonyl)-5-methylpyrazolo[1,5-a]pyrimidin-6-yl)acetic acid]", "EC50": "< 0.1"}, {"compound": "Cc1nc2cc(C(=O)N3CCN(Cc4ccc5c(c4)OCO5)CC3)nn2c(-c2cc(F)c3c(c2C)CCCO3)c1[C@H](OC(C)(C)C)C(=O)O", "note": "[Example 92, (2S)-2-(2-(4-(benzo[d][1,3]dioxol-5-ylmethyl)piperazine-1-carbonyl)-7-(8-fluoro-5-methylchroman-6-yl)-5-methylpyrazolo[1,5-a]pyrimidin-6-yl)-2-(tert-butoxy)acetic acid]", "EC50": "0.1 to 1"}, {"compound": "Cc1nc2cc(C(=O)N(C)Cc3cccnc3)nn2c(-c2cc(F)c3c(c2C)CCCO3)c1[C@H](OC(C)(C)C)C(=O)O", "note": "[Example 97, (2S)-2-(tert-butoxy)-2-(7-(8-fluoro-5-methylchroman-6-yl)-5-methyl-2-(methyl(pyridin-3-ylmethyl)carbamoyl)pyrazolo[1,5-a]pyrimidin-6-yl)acetic acid]", "EC50": "> 1"}, {"compound": "CCCCNC(=O)c1cc2nc(C)c([C@H](OC(C)(C)C)C(=O)O)c(-c3cc(F)c4c(c3C)CCCO4)n2n1", "note": "[Example 114, (2S)-2-(tert-butoxy)-2-(2-(butylcarbamoyl)-7-(8-fluoro-5-methylchroman-6-yl)-5-methylpyrazolo[1,5-a]pyrimidin-6-yl)acetic acid]", "EC50": "< 0.1"}, {"compound": "Cc1nc2cc(C(=O)NCc3ccc(N(C)C)cc3)nn2c(-c2cc(F)c3c(c2C)CCCO3)c1[C@H](OC(C)(C)C)C(=O)O", "note": "[Example 52, (2S)-2-(tert-butoxy)-2-(2-((4-(dimethylamino)benzyl)carbamoyl)-7-(8-fluoro-5-methylchroman-6-yl)-5-methylpyrazolo[1,5-a]pyrimidin-6-yl)acetic acid]", "EC50": "< 0.1"}, {"compound": "Cc1ccc(CNC(=O)c2cc3nc(C)c([C@H](OC(C)(C)C)C(=O)O)c(-c4cc(F)c5c(c4C)CCCO5)n3n2)cc1", "note": "[Example 5, (2S)-2-(tert-butoxy)-2-(7-(8-fluoro-5-methylchroman-6-yl)-5-methyl-2-((4-methylbenzyl)carbamoyl)pyrazolo[1,5-a]pyrimidin-6-yl)acetic acid]", "EC50": "< 0.1"}, {"compound": "Cc1nc2cc(C(=O)NCC34C[C@H]5C[C@@H](C3)C[C@@H](C4)C5)nn2c(-c2cc(F)c3c(c2C)CCCO3)c1[C@H](OC(C)(C)C)C(=O)O", "note": "[Example 126, (2S)-2-(2-(((3S,5S,7S)-adamantan-1-ylmethyl)carbamoyl)-7-(8-fluoro-5-methylchroman-6-yl)-5-methylpyrazolo[1,5-a]pyrimidin-6-yl)-2-(tert-butoxy)acetic acid]", "EC50": "< 0.1"}, {"compound": "COc1cc(F)ccc1CNC(=O)c1cc2nc(C)c([C@H](OC(C)(C)C)C(=O)O)c(-c3cc(F)c4c(c3C)CCCO4)n2n1", "note": "[Example 29, (2S)-2-(tert-butoxy)-2-(2-((4-fluoro-2-methoxybenzyl)carbamoyl)-7-(8-fluoro-5-methylchroman-6-yl)-5-methylpyrazolo[1,5-a]pyrimidin-6-yl)acetic acid]", "EC50": "< 0.1"}, {"compound": "Cc1nc2cc(C(=O)NS(=O)(=O)Cc3ccccc3)nn2c(-c2cc(F)c3c(c2C)CCCO3)c1[C@H](OC(C)(C)C)C(=O)O", "note": "[Example 14, (2S)-2-(2-((benzylsulfonyl)carbamoyl)-7-(8-fluoro-5-methylchroman-6-yl)-5-methylpyrazolo[1,5-a]pyrimidin-6-yl)-2-(tert-butoxy)acetic acid]", "EC50": "> 1"}, {"compound": "Cc1nc2cc(C(=O)N3CCN(Cc4ccccc4)CC3)nn2c(-c2cc(F)c3c(c2C)CCCO3)c1[C@H](OC(C)(C)C)C(=O)O", "note": "[Example 94, (2S)-2-(2-(4-benzylpiperazine-1-carbonyl)-7-(8-fluoro-5-methylchroman-6-yl)-5-methylpyrazolo[1,5-a]pyrimidin-6-yl)-2-(tert-butoxy)acetic acid]", "EC50": "0.1 to 1"}, {"compound": "Cc1nc2cc(C(=O)NC3CCN(Cc4ccccc4)C3)nn2c(-c2cc(F)c3c(c2C)CCCO3)c1[C@H](OC(C)(C)C)C(=O)O", "note": "(stereo partly drawn) [Example 82, (2S)-2-(2-((1-benzylpyrrolidin-3-yl)carbamoyl)-7-(8-fluoro-5-methylchroman-6-yl)-5-methylpyrazolo[1,5-a]pyrimidin-6-yl)-2-(tert-butoxy)acetic acid]", "EC50": "0.1 to 1"}, {"compound": "Cc1nc2cc(C(=O)NCCC(C)(C)C)nn2c(C2=CCC(C)(C)CC2)c1[C@H](OC(C)(C)C)C(=O)O", "note": "[Example 148, (S)-2-(tert-Butoxy)-2-(2-((3,3-dimethylbutyl)carbamoyl)-7-(4,4-dimethylcyclohex-1-en-1-yl)-5-methylpyrazolo[1,5-a]pyrimidin-6-yl)acetic acid]", "EC50": "< 0.1"}]}, {"test_system": "recombinant NL-Rluc virus", "test": "Inhibition of HIV replication (NL-RLuc luciferase reporter virus, MT-2 cells)", "type": "cell-based", "conditions": "Human immunodeficiency virus 1, MT2, 120 h, read-out: EC50 μM", "units": {"EC50": "µM"}, "values": [{"compound": "Cc1nc2cc(C(=O)NCc3cccc(OC(F)(F)F)c3)nn2c(-c2cc(F)c3c(c2C)CCCO3)c1[C@H](OC(C)(C)C)C(=O)O", "note": "[Example 67]", "EC50": 0.009}, {"compound": "Cc1nc2cc(C(=O)NCCC(C)(C)C)nn2c(-c2cc(F)c3c(c2C)CCCO3)c1[C@H](OC(C)(C)C)C(=O)O", "note": "[Example 62, (2S)-2-(tert-butoxy)-2-(2-((3,3-dimethylbutyl)carbamoyl)-7-(8-fluoro-5-methylchroman-6-yl)-5-methylpyrazolo[1,5-a]pyrimidin-6-yl)acetic acid]", "EC50": 0.013}]}, {"test_system": "recombinant NL-Rluc virus", "test": "Inhibition of HIV replication (NL-RLuc luciferase reporter virus, MT-2 cells)", "type": "cell-based", "conditions": "NL-RLuc virus in MT-2 cells, 5 days of incubation, luciferase readout; serum condition not given; read-out: Activity", "units": {"EC50": "µM"}, "values": [{"compound": "Cc1nc2cc(C(=O)NCC34CC5C[C@H](C3)C(O)[C@H](C5)C4)nn2c(-c2cc(F)c3c(c2C)CCCO3)c1[C@H](OC(C)(C)C)C(=O)O", "note": "(stereo partly drawn) [Example 135, (2S)-2-(tert-butoxy)-2-(7-(8-fluoro-5-methylchroman-6-yl)-2-((((1R,3R,4S,5R,7S)-4-hydroxyadamantan-1-yl)methyl)carbamoyl)-5-methylpyrazolo[1,5-a]pyrimidin-6-yl)acetic acid]", "EC50": "0.1 to 1"}]}]}
